| SMILES | melting point [°C] |
| --- | --- |
| CCC[C@H](NC(=O)Cc1cc(F)cc(F)c1)C(=O)Nc1nc(C)c(-c2ccccc2COC(C)C)s1 [compound 71, (2S)-2-{[2-(3,5-difluorophenyl)acetyl]amino}-N-{5-[2-(isopropoxymethyl)phenyl]-4-methyl-1,3-thiazol-2-yl}pentanamide] | 66.6 |
| Cc1nc(NC(=O)[C@H](C)NC(=O)Cc2cc(F)cc(F)c2)sc1-c1ccccc1COC1CCCC1 [compound 28, (2S)-N-(5-{2-[(cyclopentyloxy)methyl]phenyl}-4-methyl-1,3-thiazol-2-yl)-2-{[2-(3,5-difluorophenyl)-acetyl]amino}propanamide] | 141 |
| C[C@H](NC(=O)[C@H](F)c1cc(F)cc(F)c1)C(=O)Nc1ncc(-c2ccccc2COC2CCCCC2)s1 (racemic) [Compound No. 65, (2S)-N-(5-{2-[(cyclohexyloxy)methyl]phenyl}-1,3-thiazol-2-yl)-2-{[(2R)-2-(3,5-difluorophenyl)-2-fluoroacetyl]amino}propanamide] | 78 |
| CC(NC(=O)Cc1cc(F)cc(F)c1)C(=O)Nc1ncc(-c2ccccc2COc2ccccc2)s1 (stereo not shown) [Compound No. 5, 2-{[2-(3,5-difluorophenyl)acetyl]amino}-N-{5-[2-(phenoxymethyl)phenyl]-1,3-thiazol-2-yl}propanamide] | 114 |
| CCC[C@H](NC(=O)Cc1cc(F)cc(F)c1)C(=O)Nc1ncc(-c2ccc(OC)cc2COC(C)C)s1 [Compound No. 75, (2S)-2-{[2-(3,5-difluorophenyl)acetyl]amino}-N-(5-{2-(isopropoxymethyl)-4-methoxyphenyl}-1,3-thiazol-2-yl)pentanamide] | 73.9 |
| CCC[C@H](NC(=O)[C@@H](O)c1cc(F)cc(F)c1)C(=O)Nc1ncc(-c2ccccc2COC2CCCCC2)s1 [compound 55, (2S)-N-(5-{2-[(cyclohexyloxy)methyl]phenyl}-1,3-thiazol-2-yl)-2-{[(2S)-2-(3,5-difluorophenyl)-2-hydroxyacetyl]amino}pentanamide] | 141 |
| CCC(NC(=O)Cc1cc(F)cc(F)c1)C(=O)Nc1ncc(-c2ccccc2COC2CCCCC2)s1 (stereo not shown) [compound 9, N-(5-{2-[(cyclohexyloxy)methyl]phenyl}-1,3-thiazol-2-yl}-2-{[2-(3,5-difluorophenyl)acetyl]amino}butanamide] | 179 |
| C[C@H](NC(=O)[C@H](O)c1cc(F)cc(F)c1)C(=O)Nc1ncc(-c2ccccc2COC2CCCCC2)s1 (racemic) [Compound No. 50, (2S)-N-(5-{2-[(cyclohexyloxy)methyl]phenyl}-1,3-thiazol-2-yl)-2-{[(2R)-2-(3,5-difluorophenyl)-2-hydroxyacetyl]amino}propanamide] | 169 |
| Cc1nc(NC(=O)C(C)NC(=O)Cc2cc(F)cc(F)c2)sc1-c1ccccc1COC1CCCC1 (stereo not shown) [compound 14, N-(5-{2-[(cyclopentyloxy)methyl]phenyl}-4-methyl-1,3-thiazol-2-yl)-2-{[2-(3,5-difluorophenyl)acetyl]-amino}propanamide] | 104 |
| CCC[C@H](NC(=O)[C@H](O)c1cc(F)cc(F)c1)C(=O)Nc1nc(C)c(-c2ccccc2COC2CCCCC2)s1 [compound 53, (2S)-N-(5-{2-[(cyclohexyloxy)methyl]phenyl}-4-methyl-1,3-thiazol-2-yl)-2-{[(2R)-2-(3,5-difluorophenyl)-2-hydroxyacetyl]amino}pentanamide] | 99.4 |
| C[C@H](NC(=O)Cc1cc(F)cc(F)c1)C(=O)Nc1ncc(-c2cccc(COC3CCCCC3)c2)s1 [compound 24, (2S)-N-(5-{3-[(cyclohexyloxy)methyl]phenyl}-1,3-thiazol-2-yl)-2-{[2-(3,5-difluorophenyl)acetyl]amino}-propanamide] | 123 |
| C[C@H](NC(=O)[C@@H](F)c1cc(F)cc(F)c1)C(=O)Nc1ncc(-c2ccccc2COC2CCCCC2)s1 [Compound No. 66, (2S)-N-(5-{2-[(cyclohexyloxy)methyl]phenyl}-1,3-thiazol-2-yl)-2-{[(2S)-2-(3,5-difluorophenyl)-2-fluoroacetyl]amino}propanamide] | 158 |
| O=C(Cc1cc(F)cc(F)c1)NCC(=O)Nc1ncc(-c2ccccc2COC2CCCCC2)s1 [compound 15, N-{2-[(5-{2-[(cyclohexyloxy)methyl]phenyl}-1,3-thiazol-2-yl)amino]-2-oxoethyl}-2-(3,5-difluorophenyl)-acetamide] | 172 |
| CCC[C@H](NC(=O)C(F)(F)c1cc(F)cc(F)c1)C(=O)Nc1ncc(-c2ccccc2COC2CCCCC2)s1 [compound 74, (2S)-N-(5-{2-[(cyclohexyloxy)methyl]phenyl}-1,3-thiazol-2-yl)-2-{[2-(3,5-difluorophenyl)-2,2-difluoroacetyl]amino}pentanamide] | 68 |
| C[C@H](NC(=O)Cc1cc(F)cc(F)c1)C(=O)Nc1ncc(-c2ccc(COC3CCCCC3)cc2)s1 [compound 39, (2S)-N-(5-{4-[(cyclohexyloxy)methyl]phenyl}-1,3-thiazol-2-yl)-2-{[2-(3,5-difluorophenyl)acetyl]amino}-propanamide] | 155 |
| CC[C@H](NC(=O)Cc1cc(F)cc(F)c1)C(=O)Nc1nc(C)c(-c2ccccc2COC(C)C)s1 [compound 69, (2S)-2-{[2-(3,5-difluorophenyl)acetyl]amino}-N-{5-[2-(isopropoxymethyl)phenyl]-4-methyl-1,3-thiazol-2-yl}butanamide] | 79 |

From patent US7288659B2, “Acylaminothiazole derivatives, their preparation and therapeutic use” (Sanofi-Aventis, priority 2001, dated 2007)
